The results in this text go back to patent publication US20250051338A1, “TYK2 DEGRADERS AND USES THEREOF” (Kymera Therapeutics, Inc., priority 2021, published 2025).

What all share (assay type): cell-based
The target of assay [1] is T1, TYK2 (Homo sapiens, UniProt P29597). Kind of assay: TYK2 degradation MSD assay in human PBMC cells. Set-up: endogenous in cells; host or cells: human PBMC. As to conditions: 4 to 24 hours incubation, read-out: TYK2 MSD DC50 rating in human PBMC. The procedure: (§1) Example 3. TYK2 Degradation MSD Assay in EBV-B, OCI-LY10, and Human PBMC Cells
(§2) Degradation of TYK2 in cells was quantitatively measured using Meso Scale Discovery (MSD) technology. EBV-B, OCI-LY10 or human PBMC cells were seeded in 96-well plates with a density of 0.4 million cells per well in 100 μl fresh media. Compounds were then added to the assay plates with a final top concentration of 1 to 10 μM in a 1:3 dilution series with total of 9 doses. The assay plates were then incubated for 4 to 24 hours at 37° C. under 5% CO2. The assay plates were then centrifuged for 5 minutes, and the cell pellets were treated with 100 μl/well RIPA lysis buffer (Boston Bioproducts, BP-115D) with protease and phosphatase inhibitors (Roche, 05892791001 and 04906837001). To prepare MSD assay plates (MSD, L15XA), the plates were coated with the capture antibody (Santa Cruz Biotechnology, SC-5271) in PBS, at 40 μl/well. The plates were then incubated overnight at 4° C., washed 3 times with 150 μl/well TBST buffer (Cell Signaling Technology, 9997S) and blocked with 150 μl/well blocking buffer (MSD, R93BA-4). Cell lysates were then added to MSD assay plates and the plates were incubated at room temperature for 1 hour. The plates were then washed 3 times with 150 μl/well TBST buffer and 25 μl/well primary detection antibody (Cell Signaling Technology, #9312). The assay plates were then incubated at room temperature for 1 hour, washed 3 times with 150 μl/well TBST buffer, and 25 μl/well secondary detection antibody, SULFO-TAG anti-rabbit antibody (MSD, R32AB-1) were added. The assay plates were then incubated at room temperature for 1 hour, washed 3 times with 150 μl/well TBST buffer, and 150 μl/well MSD reading buffer (MSD, R92TC-2) were added. The plates were then analyzed by an MSD reader. The data was analyzed by GraphPad Prism and the dose dependent TYK2 degradation was fit using the four-parameter inhibitor vs. response nonlinear regression. The DC50 data were measured and categorized into different levels in Table H. The compound with DC50 less than or equal to 1 nM is marked as A, with DC50 more than 1 nM and less than or equal to 10 nM is marked as B, with DC50 more than 10 nM and less than or equal to 100 nM is marked as C, and with DC50 more than 100 nM or not available is marked as D.

The target of assay [2] is T1, TYK2. Kind of assay: TYK2 degradation MSD assay in EBV-B cells. The arrangement: endogenous in cells; host or cells: EBV-B cells. The settings on record: 4 to 24 hours incubation, read-out: TYK2 MSD DC50 rating in EBV-B. The procedure:
as §1, §2

The target in assay [3] is T1, TYK2. Nature of the assay: TYK2 degradation MSD assay in OCI-LY10 cells. The arrangement: endogenous in cells; host or cells: EBV-B cells. The settings on record: 4 to 24 hours incubation, read-out: TYK2 MSD DC50 rating in OCI-LY10. The procedure: as §1, §2

Some results are limits rather than exact numbers.

T1 sequence (P29597 whole entry): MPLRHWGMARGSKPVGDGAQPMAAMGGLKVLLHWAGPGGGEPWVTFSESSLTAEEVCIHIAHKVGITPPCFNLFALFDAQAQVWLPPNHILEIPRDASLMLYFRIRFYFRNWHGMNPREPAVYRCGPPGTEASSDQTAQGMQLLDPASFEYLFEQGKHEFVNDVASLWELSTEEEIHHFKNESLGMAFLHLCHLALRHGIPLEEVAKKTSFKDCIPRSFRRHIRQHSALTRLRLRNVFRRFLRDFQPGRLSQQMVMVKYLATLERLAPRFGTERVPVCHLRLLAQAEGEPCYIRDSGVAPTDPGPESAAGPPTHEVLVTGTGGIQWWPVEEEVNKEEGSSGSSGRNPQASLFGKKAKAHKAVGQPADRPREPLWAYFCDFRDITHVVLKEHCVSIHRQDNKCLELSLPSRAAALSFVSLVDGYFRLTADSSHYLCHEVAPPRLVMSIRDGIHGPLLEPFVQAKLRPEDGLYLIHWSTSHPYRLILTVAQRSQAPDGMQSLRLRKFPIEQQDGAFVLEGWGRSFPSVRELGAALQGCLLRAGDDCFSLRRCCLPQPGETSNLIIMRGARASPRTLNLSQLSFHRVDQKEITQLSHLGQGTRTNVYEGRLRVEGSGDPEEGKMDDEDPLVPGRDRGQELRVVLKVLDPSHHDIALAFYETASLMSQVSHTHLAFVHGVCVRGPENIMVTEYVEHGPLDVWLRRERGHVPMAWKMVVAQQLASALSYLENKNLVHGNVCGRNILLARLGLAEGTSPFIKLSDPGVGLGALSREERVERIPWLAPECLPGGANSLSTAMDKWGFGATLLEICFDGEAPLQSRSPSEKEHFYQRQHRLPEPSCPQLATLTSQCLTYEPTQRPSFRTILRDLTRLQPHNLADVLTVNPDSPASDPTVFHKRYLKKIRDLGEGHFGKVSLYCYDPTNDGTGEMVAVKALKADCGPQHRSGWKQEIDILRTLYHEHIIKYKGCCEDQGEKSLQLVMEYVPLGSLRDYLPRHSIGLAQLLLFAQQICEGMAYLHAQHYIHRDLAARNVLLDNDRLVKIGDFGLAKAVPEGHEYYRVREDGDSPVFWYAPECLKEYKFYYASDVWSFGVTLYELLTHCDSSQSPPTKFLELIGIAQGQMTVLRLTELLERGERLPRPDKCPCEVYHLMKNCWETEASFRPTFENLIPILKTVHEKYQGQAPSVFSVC

For `CNc1cc(-c2ccc(N3CCC(CN4CC5(CCN(c6cccc7c6n(C)c(=O)n7C6CCC(=O)NC6=O)CC5)C4)CC3)cc2)nn2c(C(=O)N[C@@H]3C[C@@H]3F)cnc12` (mixture of isomers) [Example K533], the DC50 on TYK2 [1], at TYK2 [2] and on TYK2 [3] was above 100 nM each time.

In the case of `CNc1cc(N2CCc3c(C4CCN(CC5CCN(C(=O)c6ccc(Cl)c(N7CCC(=O)NC7=O)c6)CC5)CC4)cccc32)nn2c(C(=O)N[C@@H]3C[C@@H]3F)cnc12` (racemic) [Example K535], the 50% degradation concentration (DC50) on TYK2 [1], on TYK2 [2] and on TYK2 [3] was above 100 nM in each case.

Regarding `CNc1cc(N2CCc3c(C4CCN(CC5CCN(c6ccc(-c7ccc8c(c7)n(C)c(=O)n8C7CCC(=O)NC7=O)cc6)CC5)CC4)cccc32)nn2c(C(=O)N[C@@H]3C[C@@H]3F)cnc12` (mixture of isomers) [Example K536], the half-maximal degradation concentration (DC50) – broadly, the midpoint of the concentration-degradation curve – on TYK2 [1] is above 100 nM; on TYK2 [2], above 100 nM; at TYK2 [3], below 1 nM.

For `CNc1cc(Nc2cccc(C3CCN(CC4CCN(c5ccc(-c6cccc7c6n(C)c(=O)n7C6CCC(=O)NC6=O)cc5)CC4)CC3)c2OC)nn2c(C(=O)N[C@@H]3C[C@@H]3F)cnc12` (mixture of isomers) [Example K538], the half-maximal degradation concentration (DC50) on TYK2 [1], at TYK2 [2] and on TYK2 [3] was above 100 nM each time.

For `COc1c(Nc2cc(C(F)F)c3ncc(C(=O)N[C@@H]4C[C@@H]4F)n3n2)cccc1-c1ccc(CN2CCN(c3ccc(-c4ccc5c(c4)n(C)c(=O)n5C4CCC(=O)NC4=O)cc3)CC2)cn1` (mixture of isomers) [Example K539], the DC50 on TYK2 [1], at TYK2 [2] and on TYK2 [3] was above 100 nM throughout.

With `CNc1cc(-c2cn(C)c3c(C4CCN(CC5CCN(c6ccc(-c7ccc8c(c7)n(C)c(=O)n8C7CCC(=O)NC7=O)cc6)CC5)CC4)cccc23)nn2c(C(=O)N[C@@H]3C[C@@H]3F)cnc12` (mixture of isomers) [Example K540], the values for the DC50 at TYK2 [1], on TYK2 [2] and at TYK2 [3] were above 100 nM, above 100 nM and 1 to 10 nM, respectively.

Take `CNc1cc(Nc2cccc(-c3ccc(CN4CCN(c5ccc(-c6ccc7c(c6)n(C)c(=O)n7C6CCC(=O)NC6=O)cc5)CC4)cn3)c2Cl)nn2c(C(=O)N[C@@H]3C[C@@H]3F)cnc12` (mixture of isomers) [Example K541]: the DC50 was above 100 nM at TYK2 [1], above 100 nM at TYK2 [2] and below 1 nM on TYK2 [3].

On to `CNc1cc(Nc2cccc(C#CCN3CCN(c4ccc(-c5ccc6c(c5)n(C)c(=O)n6C5CCC(=O)NC5=O)cc4)CC3)c2OC)nn2c(C(=O)N[C@@H]3C[C@@H]3F)cnc12` (mixture of isomers) [Example K543, 6-({3-[3-(4-{4-[1-(2,6-Dioxopiperidin-3-yl)-3-methyl-2-oxo-1,3-benzodiazol-5-yl]phenyl}piperazin-1-yl)prop-1-yn-1-yl]-2-methoxyphenyl}amino)-N-[(1R,2S)-2-fluorocyclopropyl]-8-(methylamino)imidazo[1,2-b]pyridazine-3-carboxamide], for which the DC50 is above 100 nM on TYK2 [1], above 100 nM on TYK2 [2] and below 1 nM on TYK2 [3].

`CNc1cc(N2CCc3c(-c4ccc(CN5CCC6(CC5)CCN(c5ccc7c(c5)n(C)c(=O)n7C5CCC(=O)NC5=O)CC6)cn4)cccc32)nn2c(C(=O)N[C@@H]3C[C@@H]3F)cnc12` (mixture of isomers) [Example K544]: the 50% degradation concentration (DC50) is above 100 nM at TYK2 [1], above 100 nM at TYK2 [2] and below 1 nM on TYK2 [3].

In the case of `CNc1cc(-c2ccc(N3CCC(CN4CCN(c5ccc(-c6ccc7c(c6)n(C)c(=O)n7C6CCC(=O)NC6=O)cc5)CC4)CC3)cc2)nn2c(C(=O)N[C@@H]3C[C@@H]3F)cnc12` (mixture of isomers) [Example K545], the DC50 at TYK2 [1], on TYK2 [2] and on TYK2 [3] was above 100 nM in each case.

Regarding `CNc1cc(N2CCc3c(-c4ccc(CN5CCN(c6ccc(-c7cccc8c(N9CCC(=O)NC9=O)cncc78)cc6)CC5)cn4)cccc32)nn2c(C(=O)N[C@@H]3C[C@@H]3F)cnc12` (racemic) [Example K546], the DC50 on TYK2 [1], on TYK2 [2] and at TYK2 [3] was above 100 nM in each case.

In the case of `CNc1cc(Oc2cnn(C3CCN(CC4CCN(c5ccc(-c6ccc7c(c6)n(C)c(=O)n7C6CCC(=O)NC6=O)cc5)CC4)CC3)c2)nn2c(C(=O)N[C@@H]3C[C@@H]3F)cnc12` (mixture of isomers) [Example K547], the DC50 at TYK2 [1], at TYK2 [2] and on TYK2 [3] was above 100 nM each time.

On to `CNc1cc(Nc2cnn(CC3CCN(CC4CCN(c5ccc6c(c5)n(C)c(=O)n6C5CCC(=O)NC5=O)CC4)CC3)c2)nn2c(C(=O)N[C@@H]3C[C@@H]3F)cnc12` (mixture of isomers) [Example K548], for which the DC50 on TYK2 [1], on TYK2 [2] and on TYK2 [3] was above 100 nM throughout.

As to `CNc1cc(Nc2cccc(-c3ccc(CN4CCN([C@H]5CC[C@@H](c6ccc7c(c6)n(C)c(=O)n7C6CCC(=O)NC6=O)CC5)CC4)cn3)c2OC)nn2c(C(=O)N[C@@H]3C[C@@H]3F)cnc12` (mixture of isomers) [Example K552], the DC50 was above 100 nM on TYK2 [1], below 1 nM at TYK2 [2] and below 1 nM on TYK2 [3].

In the case of `CNc1cc(Nc2cccc(-c3ccc(CN4CCN([C@H]5CC[C@H](c6ccc7c(c6)n(C)c(=O)n7C6CCC(=O)NC6=O)CC5)CC4)cn3)c2OC)nn2c(C(=O)N[C@@H]3C[C@@H]3F)cnc12` (mixture of isomers) [Example K553], the DC50 on TYK2 [1] is above 100 nM; on TYK2 [2], below 1 nM; at TYK2 [3], below 1 nM.

As to `CNc1cc(N2CCc3c(CN4CCN(c5ccc(-c6ccc7c(c6)n(C)c(=O)n7C6CCC(=O)NC6=O)cc5)CC4)cccc32)nn2c(C(=O)N[C@@H]3C[C@@H]3F)cnc12` (mixture of isomers) [Example K575], the DC50 on TYK2 [1] was above 100 nM; on TYK2 [2], above 100 nM; on TYK2 [3], 1 to 10 nM.

As to `CNC(=O)c1cnc(NC(=O)CCCCCCCc2ccc3c(c2)n(C)c(=O)n3C2CCC(=O)NC2=O)cc1Nc1cccc(-c2ncc(F)cn2)c1OC` (centres unmarked) [Example K104], the half-maximal degradation concentration (DC50) on TYK2 [1], at TYK2 [2] and at TYK2 [3] was above 100 nM throughout.

In the case of `CNC(=O)c1cnc(NC(=O)NCCCCc2cccc3c2n(C)c(=O)n3C2CCC(=O)NC2=O)cc1Nc1cccc(-c2ncc(F)cn2)c1OC` (centres unmarked) [Example K105], the 50% degradation concentration (DC50) at TYK2 [1], at TYK2 [2] and at TYK2 [3] was above 100 nM throughout.

As to `CNc1cc(Nc2cccn(-c3cc(C(=O)NCCOCCOCCOCCOCCOCCOCCc4cccc5c4n(C)c(=O)n5C4CCC(=O)NC4=O)ccn3)c2=O)nn2c(C(=O)N[C@@H]3C[C@@H]3F)cnc12` (some centres unmarked) [Example K246], the DC50 at TYK2 [2] was above 100 nM.

`CNc1cc(Nc2cccc(C(=O)NCCCCc3ccc4c(c3)n(C)c(=O)n4C3CCC(=O)NC3=O)c2)nn2c(C(=O)N[C@@H]3C[C@@H]3F)cnc12` (some centres unmarked) [Example K368]: the DC50 on TYK2 [2] was above 100 nM.

Take `CNc1cc(Nc2cccn(-c3ccc(C(=O)N4CCC(CN5CCC(c6ccc7c(c6)n(C)c(=O)n7C6CCC(=O)NC6=O)CC5)CC4)cn3)c2=O)nn2c(C(=O)N[C@@H]3C[C@@H]3F)cnc12` (some centres unmarked) [Example K411]: the DC50 is above 100 nM on TYK2 [2] and below 1 nM at TYK2 [3].

With `CNc1cc(Nc2cccc(-c3ccc(CN4CCN(c5ccc(-c6ccc7c(c6)n(C)c(=O)n7C6CCC(=O)NC6=O)cc5)CC4)cn3)c2)nn2c(C(=O)N[C@@H]3C[C@@H]3F)cnc12` (some centres unmarked) [Example K511], the half-maximal degradation concentration (DC50) at TYK2 [2] was above 100 nM.
